In ChEMBL document CHEMBL3596161, “Progress Toward the Development of Noscapine and Derivatives as Anticancer Agents” (J Med Chem, 2015):
Each block holds one molecule with its values, some of them ahead of it.

Legend:
Tubulin = assay: Binding affinity to tubulin (unknown origin) by fluorescence assay; type: protein-complex assay, Homo sapiens
CCRF-CEM = assay: Cytotoxicity against human CEM cells; type: functional, cell-based
HeLa [1] = assay: Cytotoxicity against human HeLa cells; type: functional, cell-based
A549 = assay: Cytotoxicity against human A549 cells; type: functional, cell-based
MCF7 = assay: Cytotoxicity against human MCF7 cells; type: functional, cell-based
Tubulin (Homo sapiens) [2] = target: T1, Tubulin (Homo sapiens) (UniProt P68371+Q9H4B7+P0DPH7+P68366+Q13509+Q71U36+P04350+Q3ZCM7+P07437+P68363+Q9BQE3+Q6PEY2+Q13885+Q9BVA1+Q9BUF5); assay: Inhibition of MAPs-rich tubulin (unknown origin) polymerization at 50 uM; type: protein-complex assay
[3] = Cytotoxicity against human MCF-7 FLV1000 cells expressing […]; type: functional, cell-based
[4] = Antitumor activity against human H460 cells xenografted in athymic nu/nu mouse assessed as tumor regression at 10 mg/kg/day, po administered for 24 days; type: functional, NCI-H460
[5] = Cytotoxicity against human NCI-ADR-RES cells expressing ABCB1
[6] = Cytotoxicity against human NCI/ADR cells; settings: NCI/ADR-RES
HeLa [7] = assay: Cell cycle arrest in human HeLa cells assessed as accumulation at G1 phase after 24 hrs by FACS analysis (reference value: 45.2%); type: functional
HeLa [8] = assay: Cell cycle arrest in human HeLa cells assessed as accumulation at S phase after 24 hrs by FACS analysis (reference value: 12.9%); type: functional
HeLa [9] = assay: Cell cycle arrest in human HeLa cells assessed as accumulation at G2/M phase after 24 hrs by FACS analysis (reference value: 16.5%); type: functional
HeLa [10] = assay: Induction of apoptosis in human HeLa cells after 24 hrs; type: functional
HeLa [11] = assay: Growth inhibition in human HeLa cells assessed as reduction of growth at 50 uM; type: functional; settings: read-out: GI
Tubulin (Homo sapiens) [12] = target: T1, Tubulin (Homo sapiens); assay: Inhibition of tubulin polymerization in human HeLa cells assessed as shortening of microtubules at 20 uM; type: cell-based; parameters: scale not given: the % may be the effect or the level left
Tubulin (Homo sapiens) [13] = target: T1, Tubulin (Homo sapiens); assay: Inhibition of tubulin polymerization in human HeLa cells assessed as shortening of microtubules at 50 uM; type: cell-based; parameters: scale not given: the % may be the effect or the level left
Tubulin (Homo sapiens) [14] = target: T1, Tubulin (Homo sapiens); assay: Inhibition of tubulin polymerization in human HeLa cells assessed as microtubules spent time in attenuated state at 50 uM; type: cell-based; parameters: scale not given: the % may be the effect or the level left
Tubulin (Homo sapiens) [15] = target: T1, Tubulin (Homo sapiens); assay: Inhibition of tubulin polymerization in human HeLa cells assessed as polymeric tubulin level at 1 uM; type: cell-based; parameters: scale not given: the % may be the effect or the level left
Tubulin (Homo sapiens) [16] = target: T1, Tubulin (Homo sapiens); assay: Inhibition of tubulin polymerization in human HeLa cells assessed as polymeric tubulin level at 10 uM; type: cell-based; parameters: scale not given: the % may be the effect or the level left
Tubulin (Homo sapiens) [17] = target: T1, Tubulin (Homo sapiens); assay: Inhibition of tubulin polymerization in human HeLa cells assessed as polymeric tubulin level at 100 uM; type: cell-based; parameters: scale not given: the % may be the effect or the level left
C6 = assay: Antitumor activity against rat C6 cells xenografted in mouse assessed as reduction of tumor volume relative to control; type: functional
[18] = Antiproliferative activity against human LN229 cells assessed as decrease in colony formation; type: functional, cell-based; settings: LN-229
[19] = Antiproliferative activity against human A172 cells assessed as decrease in colony formation; type: functional, cell-based; settings: A 172
U-251 [20] = assay: Antiproliferative activity against human U251 cells assessed as decrease in colony formation; type: functional, cell-based
U-251 [21] = assay: Cell cycle arrest in human U251 cells assessed as accumulation at G1 phase at 30 uM after 24 hrs by flow cytomtery analysis (reference value: 59.62%); type: functional
U-251 [22] = assay: Cell cycle arrest in human U251 cells assessed as accumulation at S phase at 30 uM after 24 hrs by flow cytomtery analysis (reference value: 18.08%); type: functional
U-251 [23] = assay: Cell cycle arrest in human U251 cells assessed as accumulation at G2/M phase at 30 uM after 24 hrs by flow cytomtery analysis (reference value: 22.31%); type: functional
U-251 [24] = assay: Cell cycle arrest in human TMZ-resistant U251 cells assessed as accumulation at G1 phase at 30 uM after 24 hrs by flow cytomtery analysis (reference value: 47.53%); type: functional
U-251 [25] = assay: Cell cycle arrest in human TMZ-resistant U251 cells assessed as accumulation at S phase at 30 uM after 24 hrs by flow cytomtery analysis (reference value: 33.05%); type: functional
U-251 [26] = assay: Cell cycle arrest in human TMZ-resistant U251 cells assessed as accumulation at G2/M phase at 30 uM after 24 hrs by flow cytomtery analysis (reference value: 19.42%); type: functional
[27] = Cytotoxicity against human H460 cells after 72 hrs; type: functional, cell-based; settings: NCI-H460, 72 h
[28] = Antitumor activity against human H460 cells xenografted in athymic nu/nu mouse assessed as tumor regression at 300 mg/kg/day, po administered for 24 days; type: functional, NCI-H460
[29] = Antitumor activity against human H460 cells xenografted in athymic nu/nu mouse assessed as tumor regression at 450 mg/kg/day, po administered for 24 days; type: functional, NCI-H460
[30] = Antitumor activity against human H460 cells xenografted in athymic nu/nu mouse assessed as tumor regression at 550 mg/kg/day, po administered for 24 days; type: functional, NCI-H460
HeLa [31] = assay: Antimitotic activity against human HeLa cells; type: functional, cell-based
HeLa [32] = assay: Cell cycle arrest in human HeLa cells assessed as accumulation at G2/M phase by measuring 4N DNA content at 6.4 uM by flow cytometry; type: functional

Kd (Tubulin): 14 µM
Compound: COc1ccc2c(c1OC)C(=O)O[C@@H]2[C@H]1c2c(c(N)c3c(c2OC)OCO3)CCN1C

Compound: COc1ccc2c(c1OC)C(=O)O[C@@H]2[C@H]1c2c(cc3c(c2OC)OCO3)CCN1Cc1cccc(Br)c1
IC50 (CCRF-CEM): 7.5 µM | IC50 (HeLa [1]): 17.3 µM | IC50 (A549): 32.1 µM | IC50 (MCF7): 27.8 µM

inhibition (Tubulin (Homo sapiens) [2]): 61%
Compound: COc1ccc2c(c1OCCCS(=O)(=O)O)C(=O)O[C@@H]2[C@H]1c2c(c(Br)c3c(c2OC)OCO3)CCN1C

Compound: O=C1c2c(O)ccc(O)c2C(=O)c2c(NCCNCCO)ccc(NCCNCCO)c21 [MITOXANTRONE]
IC50 (MCF7): 0.026 µM | IC50 [3]: 0.435 µM

Compound: COc1ccc2c(c1OC)C(=O)O[C@@H]2[C@H]1c2c(cc3c(c2OC)OCO3)CCN1Cc1ccc([N+](=O)[O-])cc1
IC50 (CCRF-CEM): 10 µM | IC50 (HeLa [1]): 23.7 µM | IC50 (A549): 49 µM | IC50 (MCF7): 38.2 µM

Compound: CC(=O)O[C@@]12CO[C@@H]1C[C@H](O)[C@@]1(C)C(=O)[C@H](O)C3=C(C)[C@@H](OC(=O)[C@H](O)[C@@H](NC(=O)OC(C)(C)C)c4ccccc4)C[C@@](O)([C@@H](OC(=O)c4ccccc4)[C@H]21)C3(C)C [DOCETAXEL ANHYDROUS]
Activity [4]: 93%

Compound: COc1ccc2c(c1OC)C(=O)O[C@@H]2[C@H]1c2c(cc3c(c2OC)OCO3)CCN1Cc1ccc(Br)cc1
IC50 (CCRF-CEM): 9 µM | IC50 (HeLa [1]): 21.2 µM | IC50 (A549): 42.4 µM | IC50 (MCF7): 34.1 µM

Compound: COc1cc2c(c(OC)c1OC)-c1ccc(OC)c(=O)cc1[C@@H](NC(C)=O)CC2 [COLCHICINE]
IC50 [5]: 0.096 µM | IC50 [6]: 0.00036 µM

Compound: COc1ccc2c(c1OC)C(=O)O[C@@H]2[C@H]1c2c(cc3c(c2OC)OCO3)CCN1Cc1ccccc1
IC50 (CCRF-CEM): 8.3 µM | IC50 (HeLa [1]): 19.4 µM | IC50 (A549): 37.7 µM | IC50 (MCF7): 31.2 µM

Activity (Tubulin (Homo sapiens) [12]): 21.6% | Activity (Tubulin (Homo sapiens) [13]): 24.3% | Activity (Tubulin (Homo sapiens) [14]): 12.7% | Activity (Tubulin (Homo sapiens) [15]): 58.3% | Activity (Tubulin (Homo sapiens) [16]): 59.2% | Activity (Tubulin (Homo sapiens) [17]): 59.2% | IC50 (U-251 [20]): 40 µM | EC50 (HeLa [31]): 18.4 µM
Compound: COc1ccc2c(c1OC)C(=O)O[C@@H]2[C@H]1c2c(cc3c(c2OC)OCO3)CCN1C [NOSCAPINE]
Activity (HeLa [7]): 6.4% | Activity (HeLa [8]): 11.1% | Activity (HeLa [9]): 42.9% | Activity (HeLa [10]): 50% | inhibition of growth at 50 µM (HeLa [11]): 42.4% | growth inhibition (GI) (C6): 60% | IC50 [18]: 70 µM | IC50 [19]: 20 µM | Activity (U-251 [21]): 28.92% | Activity (U-251 [22]): 23.33% | Activity (U-251 [23]): 47.75% | Activity (U-251 [24]): 21.54% | Activity (U-251 [25]): 25.33% | Activity (U-251 [26]): 23.13% | IC50 [27]: 34.7 µM | Activity [28]: 49% | Activity [29]: 65% | Activity [30]: 86% | Activity (HeLa [32]): 15.2% | IC50 (CCRF-CEM): 14.5 µM | IC50 (A549): 72.9 µM

Kd (Tubulin): 86 µM
Compound: COc1ccc2c(c1OC)C(=O)O[C@@H]2[C@H]1c2c(c([N+](=O)[O-])c3c(c2OC)OCO3)CCN1C
